Measured values: ChEMBL document CHEMBL5465560, “Selectivity Literature for EUbOPEN Chemogenomic Library” (2024)

What was measured:
[1] = biological target: Protein kinase C theta type (Homo sapiens, UniProt Q04759); assay: Selectivity interaction (KinomeScan (DiscoverX)) EUB0000229b PRKCQ; details: at 10 µM
[2] = biological target: 5-hydroxytryptamine receptor 7 (Homo sapiens) (UniProt P34969); assay: Selectivity interaction (GPCR panel (PDSP screen)) EUB0001079a HTR7; details: at 10 µM
[3] = biological target: T1, Serine/threonine-protein kinase Sgk3 (Homo sapiens) (UniProt Q96BR1); assay: Selectivity interaction (KinomeScan (DiscoverX)) EUB0000595a SGK3; details: at 10 µM
T1 sequence (whole entry): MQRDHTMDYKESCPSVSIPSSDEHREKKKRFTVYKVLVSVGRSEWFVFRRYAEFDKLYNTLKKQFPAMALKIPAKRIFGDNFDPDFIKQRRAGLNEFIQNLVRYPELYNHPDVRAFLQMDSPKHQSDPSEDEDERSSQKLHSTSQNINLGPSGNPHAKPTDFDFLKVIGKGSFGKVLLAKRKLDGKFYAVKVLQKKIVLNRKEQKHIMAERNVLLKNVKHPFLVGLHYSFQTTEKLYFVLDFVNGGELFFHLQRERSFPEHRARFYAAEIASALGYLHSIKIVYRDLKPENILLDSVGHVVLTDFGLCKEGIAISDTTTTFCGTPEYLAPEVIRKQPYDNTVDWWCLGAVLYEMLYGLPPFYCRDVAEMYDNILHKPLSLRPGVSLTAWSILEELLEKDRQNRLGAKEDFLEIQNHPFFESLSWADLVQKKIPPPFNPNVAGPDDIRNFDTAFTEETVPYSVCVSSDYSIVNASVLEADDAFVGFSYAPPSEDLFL

[4] = biological target: T2, Protein arginine N-methyltransferase 7 (Homo sapiens) (UniProt Q9NVM4); assay: Selectivity interaction (Methyltransferase screen (Scintillation proximity assays)) EUB0000255b PRMT7
T2 sequence (whole entry): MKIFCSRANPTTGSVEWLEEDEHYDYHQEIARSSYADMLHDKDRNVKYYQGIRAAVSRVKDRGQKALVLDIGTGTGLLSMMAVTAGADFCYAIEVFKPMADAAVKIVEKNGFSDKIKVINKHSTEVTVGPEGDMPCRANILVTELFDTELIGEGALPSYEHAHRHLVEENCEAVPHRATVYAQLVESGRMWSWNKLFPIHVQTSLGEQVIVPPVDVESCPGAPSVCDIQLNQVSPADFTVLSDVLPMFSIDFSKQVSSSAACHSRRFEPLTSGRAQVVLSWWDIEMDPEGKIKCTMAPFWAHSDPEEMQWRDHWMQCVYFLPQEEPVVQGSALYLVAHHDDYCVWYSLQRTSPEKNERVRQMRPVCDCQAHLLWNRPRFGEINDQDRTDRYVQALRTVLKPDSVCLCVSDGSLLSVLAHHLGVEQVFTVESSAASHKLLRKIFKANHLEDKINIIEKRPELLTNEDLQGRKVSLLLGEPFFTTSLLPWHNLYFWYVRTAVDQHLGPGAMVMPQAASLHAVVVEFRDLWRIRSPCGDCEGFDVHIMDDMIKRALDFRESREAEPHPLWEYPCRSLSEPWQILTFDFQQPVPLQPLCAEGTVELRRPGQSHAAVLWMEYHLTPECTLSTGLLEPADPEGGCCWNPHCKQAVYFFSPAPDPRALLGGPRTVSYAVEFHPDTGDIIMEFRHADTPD

[5] = biological target: Calcium/calmodulin-dependent protein kinase type 1D (Homo sapiens) (UniProt Q8IU85); assay: Selectivity interaction (KinomeScan (DiscoverX)) EUB0000655a CAMK1D; details: at 10 µM
[6] = biological target: T3, Serine/threonine-protein kinase BRSK2 (Homo sapiens) (UniProt Q8IWQ3); assay: Selectivity interaction (SelectScreen profiling (Invitrogen)) EUB0000607a BRSK2; details: at 2 µM
T3 sequence (whole entry): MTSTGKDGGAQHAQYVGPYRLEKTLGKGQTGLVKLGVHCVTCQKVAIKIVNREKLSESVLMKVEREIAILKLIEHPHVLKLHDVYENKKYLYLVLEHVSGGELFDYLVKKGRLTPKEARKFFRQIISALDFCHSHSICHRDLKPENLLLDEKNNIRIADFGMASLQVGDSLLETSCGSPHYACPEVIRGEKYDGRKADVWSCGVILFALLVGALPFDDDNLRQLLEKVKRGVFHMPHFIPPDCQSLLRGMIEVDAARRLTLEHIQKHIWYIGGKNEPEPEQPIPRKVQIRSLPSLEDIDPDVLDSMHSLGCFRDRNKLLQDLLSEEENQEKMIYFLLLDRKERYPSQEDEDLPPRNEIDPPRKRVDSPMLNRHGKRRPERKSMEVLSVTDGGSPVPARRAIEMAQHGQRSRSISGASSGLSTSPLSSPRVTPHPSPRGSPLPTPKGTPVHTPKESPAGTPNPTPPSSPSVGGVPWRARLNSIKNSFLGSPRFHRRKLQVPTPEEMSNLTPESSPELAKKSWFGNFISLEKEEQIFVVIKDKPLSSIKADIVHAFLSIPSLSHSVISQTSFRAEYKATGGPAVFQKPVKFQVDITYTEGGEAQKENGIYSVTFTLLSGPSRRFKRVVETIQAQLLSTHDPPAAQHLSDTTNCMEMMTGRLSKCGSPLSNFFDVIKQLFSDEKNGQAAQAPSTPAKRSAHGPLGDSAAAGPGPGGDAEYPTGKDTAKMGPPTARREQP

Calcium/calmodulin-dependent protein kinase type 1D (Homo sapiens), sequence (Q8IU85 whole entry, looked up): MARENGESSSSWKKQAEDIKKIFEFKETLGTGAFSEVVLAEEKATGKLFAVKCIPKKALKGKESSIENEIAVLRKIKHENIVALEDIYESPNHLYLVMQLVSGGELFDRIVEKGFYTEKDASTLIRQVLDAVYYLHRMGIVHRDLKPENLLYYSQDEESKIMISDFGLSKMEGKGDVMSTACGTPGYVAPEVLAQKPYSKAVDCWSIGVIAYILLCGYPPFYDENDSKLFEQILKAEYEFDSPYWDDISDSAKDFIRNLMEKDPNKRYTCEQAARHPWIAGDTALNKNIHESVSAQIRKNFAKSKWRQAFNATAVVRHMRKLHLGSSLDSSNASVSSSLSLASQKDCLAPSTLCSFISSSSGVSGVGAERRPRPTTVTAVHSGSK
5-hydroxytryptamine receptor 7 (Homo sapiens), sequence (P34969 whole entry): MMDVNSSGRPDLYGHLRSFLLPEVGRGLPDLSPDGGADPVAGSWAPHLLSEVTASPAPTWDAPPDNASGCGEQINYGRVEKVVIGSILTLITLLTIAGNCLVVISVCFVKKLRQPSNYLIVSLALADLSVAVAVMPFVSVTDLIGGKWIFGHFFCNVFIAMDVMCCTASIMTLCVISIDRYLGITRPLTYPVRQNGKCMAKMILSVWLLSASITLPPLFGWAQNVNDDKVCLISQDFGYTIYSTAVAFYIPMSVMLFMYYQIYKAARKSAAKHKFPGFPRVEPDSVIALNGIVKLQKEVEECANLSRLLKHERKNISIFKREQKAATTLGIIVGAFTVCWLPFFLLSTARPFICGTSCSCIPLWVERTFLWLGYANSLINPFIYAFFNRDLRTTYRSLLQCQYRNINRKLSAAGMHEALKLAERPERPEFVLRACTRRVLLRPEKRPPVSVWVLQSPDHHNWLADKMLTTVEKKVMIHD
Protein kinase C theta type, sequence (Q04759 whole entry, looked up): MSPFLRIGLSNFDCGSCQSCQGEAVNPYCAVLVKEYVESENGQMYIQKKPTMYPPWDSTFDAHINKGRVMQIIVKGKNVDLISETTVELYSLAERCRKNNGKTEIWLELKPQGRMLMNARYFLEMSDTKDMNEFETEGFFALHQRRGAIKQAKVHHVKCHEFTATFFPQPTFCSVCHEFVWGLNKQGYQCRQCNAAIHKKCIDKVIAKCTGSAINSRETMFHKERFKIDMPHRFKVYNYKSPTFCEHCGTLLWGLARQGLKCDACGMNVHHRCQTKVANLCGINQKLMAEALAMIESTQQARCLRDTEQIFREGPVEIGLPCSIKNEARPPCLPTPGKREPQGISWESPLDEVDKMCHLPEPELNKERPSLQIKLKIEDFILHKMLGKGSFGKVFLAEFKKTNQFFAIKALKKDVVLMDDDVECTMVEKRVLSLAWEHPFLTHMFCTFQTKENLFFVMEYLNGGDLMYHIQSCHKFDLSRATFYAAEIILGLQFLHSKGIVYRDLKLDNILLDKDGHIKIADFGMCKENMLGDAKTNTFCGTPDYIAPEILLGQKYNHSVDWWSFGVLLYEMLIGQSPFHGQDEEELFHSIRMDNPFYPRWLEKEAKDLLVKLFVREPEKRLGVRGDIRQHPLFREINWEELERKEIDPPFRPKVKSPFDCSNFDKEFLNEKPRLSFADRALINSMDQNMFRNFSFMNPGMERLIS

COc1cc(N(C)c2ccnc3ccc(C(F)(F)F)cc23)cc(OC)c1OC
% binding [1]: 66%

Nc1cnc(N2CCc3cc(S(=O)(=O)Nc4c(F)cc(Cl)cc4F)cc(N4CCCC4=O)c32)nc1 [TP-020n]
% of inhibition [2]: 0.94%

COCC(=O)NC/C=C/c1ccc2ncnc(Nc3ccc(Oc4ccc(C)nc4)c(C)c3)c2c1 [CP-724714]
% of control [3]: 100%

COCCN1CCC(c2cc(CN(C)C(=O)c3cccc(Oc4ccccc4)c3)ccn2)CC1
% activity ([4]; at 1 µM): > 95% | % activity ([4]; at 10 µM): > 90%

CN(C)CCOc1ccc(-c2nc(-c3ccncc3)c(-c3ccc4c(c3)CC/C4=N\O)[nH]2)cc1
% of control [5]: 100%

CNC(=O)Nc1ccc(-c2nc(N3CC4CCC(C3)O4)c3cnn(C4CCC5(CC4)OCCO5)c3n2)cc1
% of inhibition [6]: 1%
